According to US8772250B2, “Compositions and methods for treating ischemia and ischemia-reperfusion injury” (Ischemix, LLC, priority 2010, dated 2014):
Like-named read-outs stand apart in the source and are kept apart here.

Assay: Pharmacokinetic evaluation in humans
Type: in vivo
Conditions: human; for CL renal: plasma and urine; for AUC(0-inf) / clearance / Cmax / Vd / half-life / AUC(0-t): plasma
Procedure: Plasma and urine RLip-EA-OH concentrations were measured at BASi, Inc. (West Lafayette, Ind.) using a LC/MS/MS method with positive turbo ion spray, in the multiple reaction-monitoring mode. The quantifiable range for human plasma was 1.00 to 500 ng/mL and QC samples were included at 3.00, 75.0 and 375 ng/mL.
The PK population included subjects who received RLip-EA-OH and had ≧1 post-dose PK measurement. […] Plasma samples from 24 subjects (6 RLip-EA-OH subjects per cohort) were analyzed (Tables 16 and 17).

C[C@H](NC(=O)[C@H](CCC(=O)O)NC(=O)CCCC[C@@H]1CCSS1)C(=O)O [RLip-EA-OH, N-(R)-lipoyl-L-glutamyl-L- alanine]
CL renal (20 mg, noncompartmental, read-out: Renal clearance, Mean (SD) (converted)): 168 mL/min
CL renal (20 mg, noncompartmental, read-out: Renal clearance, Median (converted)): 186 mL/min
CL renal (20 mg, noncompartmental, read-out: Renal clearance, Minimum, maximum): 80.8 to 255 mL/min
CL renal (60 mg, noncompartmental, read-out: Renal clearance, Mean (SD) (converted)): 181 mL/min
CL renal (60 mg, noncompartmental, read-out: Renal clearance, Median (converted)): 188 mL/min
CL renal (60 mg, noncompartmental, read-out: Renal clearance, Minimum, maximum): 135 to 220 mL/min
CL renal (150 mg, noncompartmental, read-out: Renal clearance, Mean (SD) (converted)): 124 mL/min
CL renal (150 mg, noncompartmental, read-out: Renal clearance, Median (converted)): 98 mL/min
CL renal (150 mg, noncompartmental, read-out: Renal clearance, Minimum, maximum): 58.5 to 243 mL/min
CL renal (300 mg, noncompartmental, read-out: Renal clearance, Mean (SD) (converted)): 141 mL/min
CL renal (300 mg, noncompartmental, read-out: Renal clearance, Median (converted)): 140 mL/min
CL renal (300 mg, noncompartmental, read-out: Renal clearance, Minimum, maximum): 85.2 to 200 mL/min
AUC(0-inf) (20 mg, compartmental, read-out: AUCinf, Mean (SD)): 0.621 µg·h/mL
AUC(0-inf) (20 mg, compartmental, read-out: AUCinf, Median): 0.614 µg·h/mL
AUC(0-inf) (20 mg, compartmental, read-out: AUCinf, Minimum, maximum): 0.474 to 0.787 µg·h/mL
clearance (20 mg, compartmental, read-out: CL, Mean (SD) (converted)): 557 mL/min
clearance (20 mg, compartmental, read-out: CL, Median (converted)): 545 mL/min
clearance (20 mg, compartmental, read-out: CL, Minimum, maximum): 423 to 703 mL/min
Cmax (20 mg, compartmental, read-out: Estimated Cmax, Mean (SD)): 2.36 µg/mL
Cmax (20 mg, compartmental, read-out: Estimated Cmax, Median): 2.48 µg/mL
Cmax (20 mg, compartmental, read-out: Estimated Cmax, Minimum, maximum): 1.36 to 3.34 µg/mL
Vd (20 mg, compartmental, read-out: Vss, Mean (SD)): 16 L
Vd (20 mg, compartmental, read-out: Vss, Median): 16 L
Vd (20 mg, compartmental, read-out: Vss, Minimum, maximum): 11 to 20 L
half-life (20 mg, compartmental, read-out: t1/2, Mean (SD) (converted)): 1 h
half-life (20 mg, compartmental, read-out: t1/2, Median (converted)): 0.8 h
half-life (20 mg, compartmental, read-out: t1/2, Minimum, maximum): 0.6 to 1.6 h
AUC(0-t) (20 mg, noncompartmental, read-out: AUC0-t, Mean (SD)): 0.581 µg·h/mL
AUC(0-t) (20 mg, noncompartmental, read-out: AUC0-t, Median): 0.556 µg·h/mL
AUC(0-t) (20 mg, noncompartmental, read-out: AUC0-t, Minimum, maximum): 0.466 to 0.717 µg·h/mL
AUC(0-inf) (20 mg, noncompartmental, read-out: AUCinf, Mean (SD)): 0.583 µg·h/mL
AUC(0-inf) (20 mg, noncompartmental, read-out: AUCinf, Median): 0.558 µg·h/mL
AUC(0-inf) (20 mg, noncompartmental, read-out: AUCinf, Minimum, maximum): 0.467 to 0.718 µg·h/mL
clearance (20 mg, noncompartmental, read-out: CL, Mean (SD) (converted)): 588 mL/min
clearance (20 mg, noncompartmental, read-out: CL, Median (converted)): 598 mL/min
clearance (20 mg, noncompartmental, read-out: CL, Minimum, maximum): 465 to 713 mL/min
Cmax (20 mg, noncompartmental, read-out: Cmax, Mean (SD)): 1.83 µg/mL
Cmax (20 mg, noncompartmental, read-out: Cmax, Median): 1.84 µg/mL
Cmax (20 mg, noncompartmental, read-out: Cmax, Minimum, maximum): 1.22 to 2.42 µg/mL
Vd (20 mg, noncompartmental, read-out: Vss, Mean (SD)): 18.5 L
Vd (20 mg, noncompartmental, read-out: Vss, Median): 18.7 L
Vd (20 mg, noncompartmental, read-out: Vss, Minimum, maximum): 14.4 to 22.4 L
half-life (20 mg, noncompartmental, read-out: t1/2, Mean (SD) (converted)): 0.86 h
half-life (20 mg, noncompartmental, read-out: t1/2, Median (converted)): 0.76 h
half-life (20 mg, noncompartmental, read-out: t1/2, Minimum, maximum): 0.61 to 1.41 h
clearance (20 mg, read-out: CL (converted)): 588 mL/min
AUC(0-inf) (60 mg, compartmental, read-out: AUCinf, Mean (SD)): 2.26 µg·h/mL
AUC(0-inf) (60 mg, compartmental, read-out: AUCinf, Median): 1.91 µg·h/mL
AUC(0-inf) (60 mg, compartmental, read-out: AUCinf, Minimum, maximum): 1.77 to 3.16 µg·h/mL
clearance (60 mg, compartmental, read-out: CL, Mean (SD) (converted)): 467 mL/min
clearance (60 mg, compartmental, read-out: CL, Median (converted)): 523 mL/min
clearance (60 mg, compartmental, read-out: CL, Minimum, maximum): 317 to 565 mL/min
Cmax (60 mg, compartmental, read-out: Estimated Cmax, Mean (SD)): 6.87 µg/mL
Cmax (60 mg, compartmental, read-out: Estimated Cmax, Median): 6.29 µg/mL
Cmax (60 mg, compartmental, read-out: Estimated Cmax, Minimum, maximum): 5.53 to 9.05 µg/mL
Vd (60 mg, compartmental, read-out: Vss, Mean (SD)): 14 L
Vd (60 mg, compartmental, read-out: Vss, Median): 15 L
Vd (60 mg, compartmental, read-out: Vss, Minimum, maximum): 10 to 17 L
half-life (60 mg, compartmental, read-out: t1/2, Mean (SD) (converted)): 1.5 h
half-life (60 mg, compartmental, read-out: t1/2, Median (converted)): 1.4 h
half-life (60 mg, compartmental, read-out: t1/2, Minimum, maximum): 1.1 to 2.6 h
AUC(0-t) (60 mg, noncompartmental, read-out: AUC0-t, Mean (SD)): 2.25 µg·h/mL
AUC(0-t) (60 mg, noncompartmental, read-out: AUC0-t, Median): 1.98 µg·h/mL
AUC(0-t) (60 mg, noncompartmental, read-out: AUC0-t, Minimum, maximum): 1.72 to 3.11 µg·h/mL
AUC(0-inf) (60 mg, noncompartmental, read-out: AUCinf, Mean (SD)): 2.26 µg·h/mL
AUC(0-inf) (60 mg, noncompartmental, read-out: AUCinf, Median): 1.98 µg·h/mL
AUC(0-inf) (60 mg, noncompartmental, read-out: AUCinf, Minimum, maximum): 1.72 to 3.11 µg·h/mL
clearance (60 mg, noncompartmental, read-out: CL, Mean (SD) (converted)): 467 mL/min
clearance (60 mg, noncompartmental, read-out: CL, Median (converted)): 505 mL/min
clearance (60 mg, noncompartmental, read-out: CL, Minimum, maximum): 322 to 582 mL/min
Cmax (60 mg, noncompartmental, read-out: Cmax, Mean (SD)): 6.56 µg/mL
Cmax (60 mg, noncompartmental, read-out: Cmax, Median): 6.84 µg/mL
Cmax (60 mg, noncompartmental, read-out: Cmax, Minimum, maximum): 5.19 to 7.99 µg/mL
Vd (60 mg, noncompartmental, read-out: Vss, Mean (SD)): 14.9 L
Vd (60 mg, noncompartmental, read-out: Vss, Median): 14.8 L
Vd (60 mg, noncompartmental, read-out: Vss, Minimum, maximum): 11.3 to 18.6 L
half-life (60 mg, noncompartmental, read-out: t1/2, Mean (SD) (converted)): 1.21 h
half-life (60 mg, noncompartmental, read-out: t1/2, Median (converted)): 1.26 h
half-life (60 mg, noncompartmental, read-out: t1/2, Minimum, maximum): 0.84 to 1.5 h
AUC(0-inf) (150 mg, compartmental, read-out: AUCinf, Mean (SD)): 7.03 µg·h/mL
AUC(0-inf) (150 mg, compartmental, read-out: AUCinf, Median): 6.92 µg·h/mL
AUC(0-inf) (150 mg, compartmental, read-out: AUCinf, Minimum, maximum): 4.89 to 9.61 µg·h/mL
clearance (150 mg, compartmental, read-out: CL, Mean (SD) (converted)): 370 mL/min
